Experimental data as given in patent publication US8513271B2, “Pyrimidine compounds as delta opioid receptor modulators” (Janssen Pharmaceutica, NV, priority 2009, dated 2013).
Several values for one entry are separate records, joined by “and”; a condition that tells them apart may be missing. Equal entries are not always repeated. Where two headings read alike, the source gives them in different places.

Tests used:
[1] = molecular target: hMOR (mu opioid receptor) (Homo sapiens, UniProt P35372); experiment: [35S]GTPγS binding assays in CHO-hMOR cell membranes (mu opioid functional assay); type: biochemical; conditions: for inhibition at 10 µM: read-out: GTPγS μ-opioid receptor % Inh @10 μM
Chain of hMOR (mu opioid receptor) (P35372 whole entry, looked up): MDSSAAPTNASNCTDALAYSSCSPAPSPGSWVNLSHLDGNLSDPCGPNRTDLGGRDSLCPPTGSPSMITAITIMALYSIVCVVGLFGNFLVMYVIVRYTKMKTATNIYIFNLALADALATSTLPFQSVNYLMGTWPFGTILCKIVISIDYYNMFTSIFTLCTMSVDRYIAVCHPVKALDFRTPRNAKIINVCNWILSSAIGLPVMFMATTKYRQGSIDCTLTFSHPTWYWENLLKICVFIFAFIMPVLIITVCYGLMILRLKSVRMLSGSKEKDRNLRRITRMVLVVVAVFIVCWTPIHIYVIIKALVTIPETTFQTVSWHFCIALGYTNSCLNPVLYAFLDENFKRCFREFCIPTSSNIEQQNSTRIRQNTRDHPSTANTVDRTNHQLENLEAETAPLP

[2] = molecular target: T1, delta opioid receptor (Mus musculus, UniProt P32300); experiment: [35S]GTPγS binding assay in NG108-15 cell membranes (delta opioid functional assay), 200 nM screen; type: biochemical; conditions: for EC50 / GTPγS δ-opioid receptor Rel Efficacy / GTPγS δ-RelEfficacy @200 nM: NG108-15 cell membranes; for EC50 / GTPγS δ-RelEfficacy @200 nM: averages if tested more than once; for GTPγS δ-opioid receptor Rel Efficacy: relative efficacy from dose response; for GTPγS δ-RelEfficacy @200 nM: 200 nM test compound, relative to calculated max of SNC80 dose response curve
T1 construct: NG108-15 cell membranes were purchased from Applied Cell Sciences (Rockville, Md.); host or cells: NG108-15 cell membranes
T1 sequence (P32300 whole entry): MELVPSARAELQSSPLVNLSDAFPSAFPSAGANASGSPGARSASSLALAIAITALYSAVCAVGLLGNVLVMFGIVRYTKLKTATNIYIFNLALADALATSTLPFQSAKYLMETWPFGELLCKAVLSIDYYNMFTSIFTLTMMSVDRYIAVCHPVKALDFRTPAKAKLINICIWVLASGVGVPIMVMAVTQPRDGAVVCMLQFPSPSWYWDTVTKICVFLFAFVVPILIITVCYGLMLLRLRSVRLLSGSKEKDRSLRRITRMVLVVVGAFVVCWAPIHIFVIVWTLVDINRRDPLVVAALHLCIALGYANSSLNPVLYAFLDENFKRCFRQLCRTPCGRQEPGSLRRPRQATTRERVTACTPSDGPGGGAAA

[3] = molecular target: T2, delta opioid receptor (Rattus norvegicus, UniProt P33533); experiment: Rat brain delta opioid receptor binding assay; conditions: rat forebrain, [3H]naltrindole ligand
T2 construct: the forebrains were homogenized in Tris buffer in a Teflon®-glass homogenizer; from tissue; host or cells: forebrain of male Wistar rats, particulate (membrane) preparation
T2 sequence (P33533 whole entry): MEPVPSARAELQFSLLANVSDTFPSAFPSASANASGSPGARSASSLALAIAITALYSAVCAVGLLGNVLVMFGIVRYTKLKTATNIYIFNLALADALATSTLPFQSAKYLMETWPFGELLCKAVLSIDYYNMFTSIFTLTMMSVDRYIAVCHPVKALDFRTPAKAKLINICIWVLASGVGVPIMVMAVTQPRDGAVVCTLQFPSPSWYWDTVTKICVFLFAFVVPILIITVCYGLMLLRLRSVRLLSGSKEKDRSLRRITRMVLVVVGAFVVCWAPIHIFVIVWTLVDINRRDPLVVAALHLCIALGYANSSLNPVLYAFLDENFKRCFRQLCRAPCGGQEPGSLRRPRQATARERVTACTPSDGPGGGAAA

[4] = molecular target: T1, delta opioid receptor; experiment: NG108-15, 24-well delta opioid receptor binding assay
[5] = molecular target: T3, mu opioid receptor (Rattus norvegicus, UniProt P33535); experiment: Rat brain mu opioid receptor binding assay; conditions: rat forebrain, [3H]DAMGO ligand
T3 construct: the forebrains were homogenized in Tris buffer in a Teflon®-glass homogenizer; from tissue; host or cells: forebrain of male Wistar rats, particulate (membrane) preparation
T3 sequence (P33535 whole entry): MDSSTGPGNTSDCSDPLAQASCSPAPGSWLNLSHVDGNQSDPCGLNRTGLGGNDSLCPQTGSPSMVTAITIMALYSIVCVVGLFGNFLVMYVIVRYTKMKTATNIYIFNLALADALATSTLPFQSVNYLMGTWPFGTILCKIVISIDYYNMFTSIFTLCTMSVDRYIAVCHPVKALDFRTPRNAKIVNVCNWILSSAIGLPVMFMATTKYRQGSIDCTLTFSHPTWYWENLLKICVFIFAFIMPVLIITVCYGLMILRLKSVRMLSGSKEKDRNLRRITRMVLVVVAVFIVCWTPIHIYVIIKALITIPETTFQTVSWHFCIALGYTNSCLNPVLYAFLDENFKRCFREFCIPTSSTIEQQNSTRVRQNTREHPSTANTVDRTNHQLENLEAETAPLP

[6] = system: CFA-induced paw radiant heat hypersensitivity; experiment: CFA-induced paw radiant heat hypersensitivity; type: in vivo, rat; conditions: Rattus norvegicus, po
[7] = read-out: GTPγS δ-opioid receptor EC50
[8] = read-out: δ-binding (Naltrindole ligand) Ki
[9] = GTPγS δ-opioid receptor EC50 (μM)
[10] = δ-binding (Naltrindole ligand) Ki
[11] = 0.5 h, read-out: maximum % reversal @ time (min), rat, 30 mg/kg p.o., 0.5% HPMC, @ 30 min
[12] = 1 h, read-out: maximum % reversal @ time (min), rat, 30 mg/kg p.o., 0.5% HPMC, @ 60 min

| SMILES | GTPγS δ-opioid receptor Rel Efficacy [2] | inhibition at 10 µM [1] [%] | EC50 [2, 9] | also measured |
| --- | --- | --- | --- | --- |
| COc1ccc(Oc2nc(-c3cccnc3)ncc2N2CCNC(C)(C)C2)cc1 [Cpd 355] | 1.002 | – | – | GTPγS μ-opioid receptor % Inh @10 μM ([1]; 10 μM, CHO-hMOR cell membranes, inhibition of agonist-stimulated GTPγS binding): 0.000%; EC50 ([1]; CHO-hMOR cell membranes, read-out: GTPγS μ-opioid receptor EC50): 243 nM; EC50 [2, 7]: 0.022 µM |
| Fc1cncc(-c2ncc(NC[C@@H]3CCCN3)c(Oc3ccc(OCC(F)(F)F)cc3)n2)c1 [Cpd 124] | – | – | – | Ki [3, 8]: 126 nM; Ki [4]: 0.3 nM |
| COc1ccc(Oc2nc(-c3cncc(OC)c3)ncc2N[C@H]2CCCNC2)cc1 [Cpd 245] | 1.095 | 4.26 | 0.0127 µM | – |
| CCOc1ccc(Oc2nc(-c3cncc(F)c3)ncc2NC[C@@H]2CCCN2)cc1 [Cpd 106] | 1.019 | 17 | 0.027 µM | Ki [3, 10]: 6 nM; EC50 [1]: > 10000 nM; Ki ([5]; μ-binding Ki): 42 nM |
| COc1ccc(Oc2nc(-c3cncc(C)c3)ncc2N2CCNCC2)cc1 [Cpd 351] | 1.036 and 1.056 | – | 0.0249 µM and 0.034 µM | inhibition in vivo at 30 mg/kg [6, 11]: 9.8% |
| COc1ccc(Oc2nc(-c3cccnc3)ncc2N2CCNC[C@@H]2C)cc1 [Cpd 354] | 1.050 | – | 0.026 µM | inhibition in vivo at 30 mg/kg [6, 12]: 24.7% |
| COc1ccc(Oc2nc(-c3cncc(SC)c3)ncc2NC[C@@H]2C[C@@H](F)CN2)cc1 [Cpd 234] | 0.987 | 7.29 | 0.034 µM | GTPγS δ-RelEfficacy @200 nM [2]: 0.847 |
| COc1ccc(Oc2nc(-c3cncc(C#N)c3)ncc2N2CCNC(C)C2)cc1 (racemic) [Cpd 343] | 1.105 | 7.29 | 0.001 µM | EC50 [1]: 1980 nM; GTPγS δ-RelEfficacy @200 nM [2]: 0.985 |
| COc1ccc(Oc2nc(-c3cncc(OC)c3)ncc2N[C@H]2CCNC2)cc1 [Cpd 256] | 1.004 | 6.2 | 0.034 µM | – |
| COc1ccc(Oc2nc(-c3cccnc3)ncc2N2CCN[C@H](C)C2)cc1 [Cpd 357, 4-(4-Methoxy-phenoxy)-5-[3-(R)-methyl-piperazin-1-yl]-2-pyridin-3-yl-pyrimidine] | 0.929 | 11.5 | 0.005 µM | EC50 [1]: 1830 nM |
| COc1ccc(Oc2nc(-c3cccnc3)ncc2N2CCNCC2)cc1 [Cpd 327, 4-(4-Methoxy-phenoxy)-5-piperazin-1-yl-2-pyridin-3-yl-pyrimidine] | 1.037 | 4.26 | 0.0527 µM | ED50 ([6]; 1 h): 14.3 mg/kg; inhibition in vivo at 30 mg/kg [6, 12]: 102%; GTPγS δ-RelEfficacy @200 nM [2]: 0.471 |
| COc1ccc(Oc2nc(-c3cncc(SC)c3)ncc2N[C@H]2CCCNC2)cc1 [Cpd 252] | 1.007 | 2.48 | 0.025 µM | – |
| COc1ccc(Oc2nc(-c3cncc(C)c3)ncc2NC[C@@H]2CCCN2)cc1 [Cpd 253] | 0.997 | – | 0.0168 µM | inhibition in vivo at 30 mg/kg [6, 12]: 75.9% |
| COc1ccc(Oc2nc(-c3cccnc3)ncc2N[C@H]2CCCNC2)cc1 [Cpd 236] | 1.042 | 6.2 | 0.017 µM | GTPγS δ-RelEfficacy @200 nM [2]: 1.026 |
| COc1ccc(Oc2nc(-c3cncc(OC)c3)ncc2N2CCCNCC2)cc1 [Cpd 346] | 1.031 | – | 0.047 µM | inhibition in vivo at 30 mg/kg [6, 11]: 37% |
| COc1ccc(Oc2nc(-c3cncc(C#N)c3)ncc2NC[C@@H]2C[C@@H](F)CN2)cc1 [Cpd 134] | 1.087 | 1 | 0.004 µM | EC50 [1]: 2780 nM; Ki ([5]; μ-binding Ki): 27 nM; Ki [4]: 0.0481 nM |
| COc1ccc(-c2ncc(NC[C@@H]3CCCN3)c(Oc3ccc(O)cc3)n2)cn1 [Cpd 59] | 1.0063 | – | – | Ki [3, 8]: 0.954 nM; EC50 [2, 7]: 0.433 µM; inhibition at 10 µM ([2]; read-out: GTPγS δ-opioid receptor % Inh @10 μM): 1.48%; Ki ([5]; read-out: μ-binding Ki): 1610 nM; Ki ([4]; [3H]Naltrindole ligand, NG108-15 cell membranes, read-out: δ-binding NG108 cell membrane Ki): 1.54 nM |
| COc1ccc(Oc2nc(-c3cncc(OC)c3)ncc2NC[C@@H]2CCCN2)cc1 [Cpd 68] | 0.912 | 11.5 | 0.031 µM | Ki [3, 10]: 2 nM; Ki ([5]; μ-binding Ki): 465 nM |
| Cc1ccc(Oc2nc(-c3cncc(C#N)c3)ncc2NC[C@@H]2CCCN2)cc1 [Cpd 147] | 1.077 | – | 0.051 µM | Ki ([5]; μ-binding Ki): 438 nM; Ki [4]: 0.4 nM |
| COc1ccc(Oc2nc(-c3cncc(C#N)c3)ncc2N2CCNC[C@@H]2C)cc1 [Cpd 345] | 1.089 | 0 | 0.001 µM | EC50 [1]: 1930 nM; GTPγS δ-RelEfficacy @200 nM [2]: 0.989 |
